≈ marks a conversion by molar mass, not a printed value. Read-outs that look alike come from different tables or passages of the source. Marks after values point to notes of the source that are not given here.
Legend:
[1] = system: Bacillus subtilis (RCMB 0107); test: Antimicrobial screening, disc diffusion; assay type: cell-based
Description: (§1) The alcoholic extracts obtained were used for testing their antimicrobial activity. Each extract (0.5 g) was dissolved in 10 ml water. Same concentrations for the successive extracts (using diethyl ether, chloroform, ethyl acetate and n-butanol) were also prepared.
(§2) The representatives of Gram negative bacteria, namely Salmonella typhimuium (RCMB 0104), Escherichia coli (RCMB 0103), Pseudomonas aeruginosa (RCMB 0102) and Gram positive bacteria, namely Bacillus subtilis (RCMB 0107), Staphylococcus aureus (RCMB 0106), Streptococcus pyogenes (RCMB 0109), unicellular fungi, namely Candida albicans (RCMB 5002) and filamentous fungi, namely Aspergillus fumigatus (RCMB 2003) and Penicllium expansum (RCMB 1006) were used as test organisms (RCMB: The Regional Center for Mycology and Biotechnology, Al-azhar University Nasser City, Cairo, Egypt).
(§3) For antimicrobial screening the well known disc diffusion and agar well diffusion methods were used, together with the determination of minimum inhibitory concentration (MIC), see Duguid et al., Microbial Infections, The English Language Book Society, Churchill Livingston, Edingburgh, London, 1978; vol. 1, page 110.
(§4) Disc diffusion method: The agar disc diffusion method is employed for the determination of antimicrobial activities of the extracts of the investigated fungal species. Sterilized paper discs (Whatman No. 1) ([…]) were separately soaked in the extracts and transferred onto the surface of growth media seeded with the test organism. After incubation period, following suitable conditions for the test organism, the diameter of the inhibition zone around the discs was measured in millimeters. The obtained result was the mean of three experiments.
(§5) Each fungal species was grown on malt extract media at 28±2° C. for 14 days. The metabolites of the fungal species were screened for antimicrobial activity. The inhibition zones around each disc were measured, in millimeter, and recorded (Tables 1).

[2] = system: Escherichia coli (RCMB 0103); test: Antimicrobial screening, disc diffusion; assay type: cell-based
Description: as §1, §2, §3, §4, §5

[3] = system: Pseudomonas aeruginosa (RCMB 0102); test: Antimicrobial screening, disc diffusion; assay type: cell-based; details: Pseudomonas aeurginosa
Description: as §1, §2, §3, §4, §5

[4] = system: Staphylococcus aureus (RCMB 0106); test: Antimicrobial screening, disc diffusion; assay type: cell-based
Description: as §1, §2, §3, §4, §5

[5] = system: Streptococcus pyogenes (RCMB 0109); test: Antimicrobial screening, disc diffusion; assay type: cell-based
Description: as §1, §2, §3, §4, §5

[6] = system: Salmonella typhimuium (RCMB 0104); test: Antimicrobial screening, disc diffusion; assay type: cell-based; details: Salmonella typhimuim
Description: as §1, §2, §3
as §4, with “millimeters.” for “millimeters. The obtained result was the mean of three experiments.”
Each fungal species was grown on malt extract media at 28±2° C. for 14 days. The metabolites of the fungal species were screened for antimicrobial activity.

[7] = system: Aspergillus fumigatus (RCMB 2003); test: Antimicrobial screening, disc diffusion; assay type: cell-based; details: for Diameter of inhibition zone: compounds isolated from Cunninghamella elegans; for zone of inhibition at 1000 µg/mL: RCMB2003, Standard Antibiotics (1 mg/ml), read-out: Diameter of inhibition zone
Description: as §1, §2, §3, §4, §5

[8] = system: Candida albicans (RCMB 5002); test: Antimicrobial screening, disc diffusion; assay type: cell-based; details: for Diameter of inhibition zone: compounds isolated from Cunninghamella elegans; for zone of inhibition at 1000 µg/mL: RCMB5002, Standard Antibiotics (1 mg/ml), read-out: Diameter of inhibition zone
Description: as §1, §2, §3, §4, §5

[9] = system: Penicllium expansum (RCMB 1006); test: Antimicrobial screening, disc diffusion; assay type: cell-based; details: Penicillium expansum; for Diameter of inhibition zone: compounds isolated from Cunninghamella elegans; for zone of inhibition at 1000 µg/mL: RCMB1006, Standard Antibiotics (1 mg/ml), read-out: Diameter of inhibition zone
Description: as §1, §2, §3, §4, §5

[10] = system: Staphylococcus aureus infected wounds; test: Wound healing activity, excision wound model; assay type: in vivo, guinea pig
Description: Swiss albino mice (20-25 g), male Sprague-Dawley rats (160-180 g) and male guinea pigs (240-260 g) were employed in the study. The animals were left for 2 weeks at room conditions to ensure stabilization before use. They were maintained on standard pellet diet and water ad libitum throughout the experiment. • a) Acute Toxicity: Mice were divided into groups of 6 and the methanol extracts of C. blakesleeana, C. elegans and C. homothallica were administered orally in increasing doses. […] Rats of the 1^St group were given a vehicle (1% v/v Tween 80) in a dose of 5 ml kg^−1 and left as normal control. Rats of the 2nd, 3rd, and 4th groups were administered the methanol extracts of C. blakesleeana, C. elegans and C. homothallica, respectively in a dose of 200 mg kg^−1. All medications were administered orally via the aid of an oral tube for 35 days. […] At the end of the experimental period, blood samples (2 mL) were collected from the retro-orbital venous plexus of each rat (under ether anesthesia) into clean centrifuge tubes. The blood samples were allowed to clot at room temperature for 30 min after which they were centrifuged at 10,000 rpm for 5 minutes. Sera were separate with Pasteur pipette into sterile serum sample tubes and used for biochemical assay.
Measurement of Liver and Kidney Function Markers: • Liver functions were evaluated by measuring the serum activity of aspartate aminotransferase (AST) and alanine aminotransferase (ALT) following the method of Reitman and Frankel, Am. J. Clin. Path., 28: 55-60, alkaline phosphatase enzyme (ALP) by the method of Babson et al., Clinical Chemistry, 12: 482-490. Serum levels of total bilirubin, total proteins and albumin were also assayed. Globulin was obtained from the difference between total proteins and albumin. Serum concentrations of uric acid, urea and creatinine were determined colormetrically as measures of kidney functions. All measurements were carried out by protocols well known in the art. • c) Wound Healing Activity: The excision wound model was used to monitor wound contraction and wound closure time. Four groups of male guinea pigs were used in the experiment with 6 animals in each group. At the beginning of the experiment, the dorsal skin of each guinea pig was shaved with an electric clipper. After 24 hours, all animals were anesthetized by diethyl ether and the shaved areas were sterilized with 70% alcoholic solution. A predetermined dorsal area (15 mm×20 mm) was inflicted by cutting away a full thickness of skin (2 mm depth) using toothed forceps, scalpel and pointed scissors. A fresh surgical blade was used for the perpendicular cut in each animal and tension of skin was kept constant during the procedure. Local infection with Staphylococcus aureus was introduced into wounds using 0.5 mL of 10^8 bacteria mL^−1 inoculums. The wounds were left undressed to the open environment and the animals were kept individually in separate cages. • Wounds treatment: Wounds were air exposed and treatment began 24 h after injury. Wounds of the control animals were treated with the vehicle (1% v/v Tween 80). Guinea pigs of the second and third group were treated with total alcohol extract of C. elegans and the isolated compound (adenosine) in a concentration of 5 mg mL^−1, while animals of the fourth group were medicated with latamoxef (Moxalactam)® in a concentration of 30 μg mL^−1 (Reference group). The vehicle, extract, and reference drug were applied topically on the wound surface once a day for 18 days. […] of each tested material was applied slowly, using an insulin syringe, from the central point extending outside the wound area to ensure inclusion of the edges. Swabs were taken on day 5 to confirm the presence of the expected organisms in the pus. • Assessment of wound healing: The wound areas were measured while the animals were under anaesthesia on days 0, 4, 7, 10, 14, and 18 post-wounding by tracing the wound areas onto a transparent tracing paper. […]

Staphylococcus aureus = test: Minimum inhibitory concentration, agar well diffusion; assay type: cell-based; details: for MIC: read-out: Minimum inhibitory concentration
Description: as §3
Agar well diffusion method: On the other hand, the agar well diffusion method was employed for determination of the minimum inhibitory concentration (MIC). The test organisms were separately seeded in the agar medium. The wells (10 mm in diameter) were cut from the agar and […] (different concentrations) was transferred into them. After incubation period, following suitable conditions for the test organism, the diameter of the inhibition zone around the discs was measured in millimeters. The obtained result was the mean of three experiments.
The minimum inhibitory concentration (MIC) of Cunninghamella blakesleeana, C. elegans, C. homothallica and successive extracts and isolated compounds of Cunninghamella elegans against Staphylococcus aureus was determined.
Minimum inhibitory concentration (MIC): The lowest concentration of an antimicrobial agent that will inhibit a visible growth of a microorganism after overnight incubation.

[11] = compounds isolated from Cunninghamella elegans
[12] = topical 30 μg mL^−1 once a day, n = 6
[13] = topical 30 μg mL^−1 once a day, n = 6, listed as latamoxef

| Compound | Diameter of inhibition zone [7] [mm] | Diameter of inhibition zone [1, 11] [mm] | Diameter of inhibition zone [8] [mm] | Diameter of inhibition zone [2, 11] [mm] | Diameter of inhibition zone [9] [mm] | Diameter of inhibition zone [3, 11] [mm] | Diameter of inhibition zone [4, 11] [mm] | Diameter of inhibition zone [5, 11] [mm] | further results |
| --- | --- | --- | --- | --- | --- | --- | --- | --- | --- |
| [H]/N=C(/N)N[C@H]1[C@H](O)[C@@H](O)[C@H](O[C@@H]2O[C@@H](C)[C@](O)(C=O)[C@H]2O[C@@H]2O[C@@H](CO)[C@H](O)[C@@H](O)[C@@H]2NC)[C@@H](N/C(N)=N\[H])[C@@H]1O [Streptomycin, reference compound] | – | – | – | – | – | – | – | – | Diameter of inhibition zone ([1]; Standard Antibiotics (1 mg/ml)): 29.0 ± 0.4 mm; Diameter of inhibition zone ([2]; Standard Antibiotics (1 mg/ml)): 25.0 ± 0.3 mm; Diameter of inhibition zone ([3]; Standard Antibiotics (1 mg/ml)): 24.0 ± 0.1 mm; Diameter of inhibition zone ([4]; Standard Antibiotics (1 mg/ml)): 25.0 ± 0.2 mm; Diameter of inhibition zone ([5]; Standard Antibiotics (1 mg/ml)): 24.0 ± 0.4 mm; Diameter of inhibition zone ([6]; Standard Antibiotics (1 mg/ml)): 28.0 ± 0.3 mm |
| CCCCCCCCCCCCCCCCCC(=O)O [Compound 3, stearic acid] | 00.0 | 00.0 | 00.0 | 00.0 | 00.0 | 00.0 | 15.0 ± 0.5 | 00.0 | Diameter of inhibition zone [6, 11]: 00.0 mm |
| CCCCCCCC/C=C\CCCCCCCC(=O)O [Compound 2, oleic acid] | 00.0 | 00.0 | 00.0 | 00.0 | 00.0 | 00.0 | 11.0 ± 0.3 | 00.0 | Diameter of inhibition zone [6, 11]: 00.0 mm |
| CO[C@@]1(NC(=O)C(C(=O)O)c2ccc(O)cc2)C(=O)N2C(C(=O)O)=C(CSc3nnnn3C)CO[C@@H]21 (stereo partly shown) [Latamoxef, latamoxef, reference compound] | – | – | – | – | – | – | – | – | wound contraction ([10]; Day 14, topical 30 μg mL^−1): 100%; Wound area on day 0 ([10]; day 0, topical 30 μg mL^−1 once a day, n = 6): 300 ± 0.0 mm^2; Wound area on day 4 ([10]; day 4, topical 30 μg mL^−1 once a day, n = 6): 219.4 ± 9.37** mm^2; Wound area on day 7 ([10]; day 7, topical 30 μg mL^−1 once a day, n = 6): 146.4 ± 5.60*** mm^2; Wound area on day 10 [10, 12]: 42.6 ± 1.85*** mm^2; Wound area on day 10 [10, 13]: 42.6±1.85 mm^2; Wound area on day 14 [10, 12]: 0.0 ± 0.0 mm^2; Wound area on day 14 [10, 13]: 0.0 mm^2 |
| O=C(O)c1cc(O)c(O)c(O)c1 [Compound 7, 3,4,5-trihydroxy-benzoic acid] | 00.0 | 00.0 | 00.0 | 00.0 | 00.0 | 00.0 | 05.0 ± 0.5 | 00.0 | MIC (Staphylococcus aureus; against Staphylococcus aureus): 130 µg/mL (≈ 764 µM) |
| CC1(C)S[C@@H]2[C@H](NC(=O)Cc3ccccc3)C(=O)N2[C@H]1C(=O)O [Penicillin G, reference compound] | – | – | – | – | – | – | – | – | Diameter of inhibition zone ([1]; Standard Antibiotics (1 mg/ml)): 32.5 ± 0.5 mm; Diameter of inhibition zone ([2]; Standard Antibiotics (1 mg/ml)): 33.5 ± 0.8 mm; Diameter of inhibition zone ([3]; Standard Antibiotics (1 mg/ml)): 28.3 ± 0.1 mm; Diameter of inhibition zone ([4]; Standard Antibiotics (1 mg/ml)): 29.5 ± 0.8 mm; Diameter of inhibition zone ([5]; Standard Antibiotics (1 mg/ml)): 31.4 ± 0.1 mm; Diameter of inhibition zone ([6]; Standard Antibiotics (1 mg/ml)): 34.3 ± 0.4 mm |
| Gentamicin [reference compound] | – | – | – | – | – | – | – | – | Minimum inhibitory concentration (Staphylococcus aureus; against Staphylococcus aureus): 0.35 µg/mL |
| Clc1ccccc1C(c1ccccc1)(c1ccccc1)n1ccnc1 [Clotrimazole, reference compound] | – | – | – | – | – | – | – | – | zone of inhibition at 1000 µg/mL [7]: 26 ± 0.1 mm; zone of inhibition at 1000 µg/mL [8]: 18 ± 0.1 mm; zone of inhibition at 1000 µg/mL [9]: 23 ± 0.3 mm |
| CCCCCCCCCCCCCCCC(=O)O [Compound 1, palmitic acid] | 00.0 | 00.0 | 00.0 | 00.0 | 00.0 | 00.0 | 13.0 | 00.0 | Diameter of inhibition zone [6, 11]: 00.0 mm |
| CN[C@H](CC(C)C)C(=O)N[C@H]1C(=O)N[C@@H](CC(N)=O)C(=O)N[C@H]2C(=O)N[C@H]3C(=O)N[C@H](C(=O)N[C@H](C(=O)O)c4cc(O)cc(O)c4-c4cc3ccc4O)[C@H](O)c3ccc(c(Cl)c3)Oc3cc2cc(c3O[C@@H]2O[C@H](CO)[C@@H](O)[C@H](O)[C@H]2O[C@H]2C[C@](C)(N)[C@H](O)[C@H](C)O2)Oc2ccc(cc2Cl)[C@H]1O [Vancomycin, reference compound] | – | – | – | – | – | – | – | – | MIC (Staphylococcus aureus; Staphylococcus aureus): 0.75 µg/mL (≈ 0.518 µM) |
| CCC(C)n1ncn(-c2ccc(N3CCN(c4ccc(OCC5COC(Cn6cncn6)(c6ccc(Cl)cc6Cl)O5)cc4)CC3)cc2)c1=O (stereo not shown) [Itraconazole, reference compound] | – | – | – | – | – | – | – | – | zone of inhibition at 1000 µg/mL [7]: 28 ± 0.5 mm; zone of inhibition at 1000 µg/mL [8]: 26 ± 0.2 mm; zone of inhibition at 1000 µg/mL [9]: 27 ± 0.1 mm |
